According to paper PMC6790676, “Increase in lysophosphatidate acyltransferase activity in oilseed rape (Brassica napus) increases seed triacylglycerol content despite its low intrinsic flux control coefficient” (The New Phytologist, 2019):

Tested on: T1, LPAAT (lysophosphatidate acyltransferase, microsomal preparations)
T1 construct: gene LPAT2; native microsomes from 27 DAF embryos; several endogenous ER isoenzymes
Assay: […]-PA formation, TLC; bi-substrate rate equation fit
Format: biochemical
Conditions: 50 mM Tris pH 7.5, 1 mg/ml BSA, 30°C, 10 min, embryo microsomes, line not told

SMILES | Km (co-substrate 1-14C-oleoyl-CoA at high concentration) [µM] | Km (co-substrate LPA at high concentration, labelled compound (1-14C-oleoyl-CoA)) [µM]
CCCCCCCC/C=C\CCCCCCCC(=O)OC[C@@H](O)COP(=O)(O)O [LPA] | 15.2 | –
CCCCCCCC/C=C\CCCCCCCC(=O)SCCNC(=O)CCNC(=O)[C@H](O)C(C)(C)COP(=O)(O)OP(=O)(O)OC[C@H]1O[C@@H](n2cnc3c(N)ncnc32)[C@H](O)[C@@H]1OP(=O)(O)O [oleoyl-CoA] | – | 103
